Reference: patent US11154548B2, “Monosubstituted or polysubstituted amphiphilic hypocrellin derivative, and preparation method and application thereof” (Technical Institute of Physics and Chemistry of the Chinese …, priority 2015, dated 2021)
“Also recorded” adds a separate entry of the source.

Experiments:
Type in all cases: cell-based
[1] = system: Hela cells; assay: Phototoxicity experiment, 671 nm laser, MTT assay; settings: 200 nM, 50 mW/cm^2, 20 min, FIG. 16b
Protocol: Phototoxicity experiment: Hela cells were incubated together with different concentrations of the compound I-1, the HB and the Ce6 respectively, further incubated in an incubator with a 5% CO2 environment at 37° C. for another 1 hour. After laser irradiation with a power density of 50 mW/cm^2 at a wavelength of 671 nm for 20 min, the Hela cells were further cultured and incubated in an incubator with a 5% CO2 environment at 37° C. for another 24 h. The survival rate of cells in each group was detected by MTT assay.

[2] = system: Hela cells; assay: Phototoxicity experiment, 808 nm laser, MTT assay; settings: 300 nM, 20 mW/cm^2, 20 min, FIG. 18b
[3] = system: Hela cells; assay: Dark cytotoxicity experiment, MTT assay; settings: in dark
Protocol: Cultured Hela cells were digested and percussed with 0.25% trypsin, made into a single cell suspension, adjusted to a cell count of about 2×10^4/mL, inoculated into a 96-well culture plate with 200 uL/well, and cultured in an incubator with a 5% CO2 environment at 37° C. After cells were adherent, the supernatant culture solution was discarded, different concentrations of photosensitizers (hematoporphyrin derivative HpD, HB, and hypocrellin derivative HB-1) were added strictly in dark according to the experiment design, […] The survival rate of cells was detected by MTT assay. 20 uL of MTT (prepared with PBS, concentration: 5 mg/mL) was added to each well, and further incubated in an incubator with a 5% CO2 environment at 37° C. for another 4 h. Then the incubation was terminated. The supernatant was carefully pipetted from the wells and discarded, and then 150 uL of dimethyl sulfoxide (DMSO) was added to each well. The violet crystal was fully dissolved by vibration with a microvibrator for 10 min. The optical density value (OD value) of each well was detected by an ELIASA at 570 nm wavelength to calculate the cell survival rate according to the following formula: cell survival rate=OD value of the experimental group/OD value of the blank group×100%.

[4] = system: Hela cells; assay: Cell phototoxicity experiment, 635 nm laser, MTT assay; settings: for Hela cells killed: 160 nM, exposed to red light (635 nm, 20 mW/cm^2, 1000 S), FIG. 10b
Protocol: Cultured Hela cells were digested and percussed with 0.25% trypsin, made into a single cell suspension, adjusted to a cell count of about 2×10^4/mL, inoculated into a 96-well culture plate with 200 uL/well, and cultured in an incubator with a 5% CO2 environment at 37° C. After cells were adherent, the supernatant culture solution was discarded, different concentrations of photosensitizers (hematoporphyrin derivative HpD, HB, and hypocrellin derivative HB-1) were added strictly in dark according to the experiment design, and further incubated in an incubator with a 5% CO2 environment at 37° C. for another 1 h. Then the 96-well culture plate was perpendicularly irradiated with uniform semiconductor laser beam at a wavelength of 635 nm with the power density adjusted to 20 mW/cm^2 for 1000 S. At the same time, a blank group was arranged for each 96-well culture plate, and 6 wells were arranged for each condition. After irradiation, the culture plate was further incubated in an incubator with a 5% CO2 environment at 37° C. for another 24 h, and then the cell survival rate was detected. The survival rate of cells was detected by MTT assay. 20 uL of MTT (prepared with PBS, concentration: 5 mg/mL) was added to each well, and further incubated in an incubator with a 5% CO2 environment at 37° C. for another 4 h. Then the incubation was terminated. The supernatant was carefully pipetted from the wells and discarded, and then 150 uL of dimethyl sulfoxide (DMSO) was added to each well. The violet crystal was fully dissolved by vibration with a microvibrator for 10 min. The optical density value (OD value) of each well was detected by an ELIASA at 570 nm wavelength to calculate the cell survival rate according to the following formula: cell survival rate=OD value of the experimental group/OD value of the blank group×100%.

[5] = system: Hela cells; assay: Dark toxicity experiment of polysubstituted derivatives, MTT assay; settings: in dark; for cytotoxicity (dark toxicity): Hela cells, FIG. 16a / FIG. 18a
Protocol: Dark toxicity experiment: Hela cells at a certain concentration were inoculated into a 96-well plate, and cultured for 12-24 h. […] […] The survival rate of cells in each group was detected by MTT assay.
Dark toxicity experiment: Hela cells at a certain concentration were inoculated into a 96-well plate, and cultured for 12-24 h. […] […] The survival rate of cells in each group was detected by MTT assay. […] After laser irradiation with a power density of 20 mW/cm^2 at a wavelength of 808 nm for 20 min, the Hela cells were further cultured and incubated in an incubator with a 5% CO2 environment at 37° C. for another 24 h. The survival rate of cells in each group was detected by MTT assay.

| Compound | Hela cells killed [1] | Hela cells killed [4] | cytotoxicity (dark toxicity) [5] | also measured |
| --- | --- | --- | --- | --- |
| C=Cc1c(C)c2cc3nc(c(CC(=O)O)c4[nH]c(cc5nc(cc1[nH]2)C(C)=C5CC)c(C)c4C(=O)O)[C@@H](CCC(=O)O)[C@@H]3C [Ce6, dihydroporphin Ce6, reference compound] | about 30% | – | – | Hela cells killed [2]: about 20% |
| COc1c(O)c2c(=O)cc(OC)c3c4c(OC)cc(=O)c5c(O)c(NCCOCCO)c6c(c(c1C(/C(C)=N/CCOCCO)C(C)=C6)c23)c54 (stereo not drawn) [HB-1] | – | more than 90% | – | death of Hela cells after incubation with the photosensitizer ([3]; 10 uM, half an hour): significant death of the Hela cells are not seen; cytotoxicity (dark toxicity) ([3]; Hela cells, FIG. 10a / FIG. 11a): low cytotoxicity |
| CCCCNc1c(O)c2c3c(c(OC)c4c5c6c(c(O)c(OC)c7c6c(c1C=C(C)C7C(C)=O)c42)C(=O)C=C5OC)SCCN=3 (stereo not drawn) [I-1] | more than 90% | – | very low cytotoxicity; also recorded: low cytotoxicity | death of Hela cells after incubation with the photosensitizer ([5]; 10 uM, half an hour): significant death of the Hela cells are not seen |
| COC1=CC(=O)c2c(O)c(OC)c3c4c2c1c1c(OC)c2c(c5c6c(c(c4c15)C=C(C)C3C(C)=O)NCCN6)=NC(C(=O)O)CS2 (stereo not drawn) [II-2] | – | – | very low cytotoxicity | – |
| hematoporphyrin derivative [HpD] | – | about 20% | – | – |
| hypocrellin B [HB] | – | about 20% | – | phototoxicity / photodynamic effect, in words ([4]; Hela cells, compared with HB and HpD, FIG. 10-14): much poorer ability to photodynamically kill tumor cells |
